Experiments:
Substance-K receptor = target: T1, Substance-K receptor (Homo sapiens, UniProt P21452); assay type: cell membranes, CHO, Membrane; conditions: cho; note: in other assays of this panel Not Active means under 50% inhibition at 10 µM
T1 sequence (P21452 whole entry): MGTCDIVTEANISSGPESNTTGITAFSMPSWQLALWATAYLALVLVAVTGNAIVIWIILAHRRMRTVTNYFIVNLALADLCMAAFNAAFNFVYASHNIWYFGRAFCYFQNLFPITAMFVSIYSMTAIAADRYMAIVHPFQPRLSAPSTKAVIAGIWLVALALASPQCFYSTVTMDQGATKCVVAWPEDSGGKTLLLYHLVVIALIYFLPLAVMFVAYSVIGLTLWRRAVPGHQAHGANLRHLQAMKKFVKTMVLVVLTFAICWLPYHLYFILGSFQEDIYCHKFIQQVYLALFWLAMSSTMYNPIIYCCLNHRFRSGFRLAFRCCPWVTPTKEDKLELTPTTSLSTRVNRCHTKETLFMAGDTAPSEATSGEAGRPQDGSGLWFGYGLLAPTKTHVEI

[1] = target: cGMP-specific 3',5'-cyclic phosphodiesterase (Homo sapiens, UniProt O76074); assay: DRUGMATRIX: Phosphodiesterase PDE5 enzyme inhibition (substrate: [3H]cGMP + cGMP); assay type: tissue-based, Platelet; conditions: platelet; Not Active = under 50% inhibition at 10 µM
[2] = target: T2, Neuropeptide Y receptor type 1 (Homo sapiens, UniProt P25929); assay type: cell membranes, Membrane; conditions: sk-n-mc; note: in other assays of this panel Not Active means under 50% inhibition at 10 µM
T2 sequence (P25929 whole entry): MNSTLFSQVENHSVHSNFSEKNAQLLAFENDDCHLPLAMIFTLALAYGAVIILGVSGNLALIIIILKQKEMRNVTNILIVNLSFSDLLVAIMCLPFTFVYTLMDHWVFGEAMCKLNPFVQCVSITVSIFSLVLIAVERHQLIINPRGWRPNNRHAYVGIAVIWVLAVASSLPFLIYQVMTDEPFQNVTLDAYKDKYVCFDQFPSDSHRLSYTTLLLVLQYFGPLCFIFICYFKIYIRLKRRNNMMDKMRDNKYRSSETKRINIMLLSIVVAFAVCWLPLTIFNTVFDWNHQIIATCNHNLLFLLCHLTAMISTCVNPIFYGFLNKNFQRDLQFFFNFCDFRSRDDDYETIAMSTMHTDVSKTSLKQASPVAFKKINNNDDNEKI

[3] = target: T3, Receptor-type tyrosine-protein phosphatase C (Homo sapiens, UniProt P08575); design: species or system Escherichia coli;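 note: inhibition of CD45 enzyme activity measured using DiFMUP as substrate; in other assays of this panel Not Active means under 50% inhibition at 10 µM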
T3 sequence (P08575 whole entry): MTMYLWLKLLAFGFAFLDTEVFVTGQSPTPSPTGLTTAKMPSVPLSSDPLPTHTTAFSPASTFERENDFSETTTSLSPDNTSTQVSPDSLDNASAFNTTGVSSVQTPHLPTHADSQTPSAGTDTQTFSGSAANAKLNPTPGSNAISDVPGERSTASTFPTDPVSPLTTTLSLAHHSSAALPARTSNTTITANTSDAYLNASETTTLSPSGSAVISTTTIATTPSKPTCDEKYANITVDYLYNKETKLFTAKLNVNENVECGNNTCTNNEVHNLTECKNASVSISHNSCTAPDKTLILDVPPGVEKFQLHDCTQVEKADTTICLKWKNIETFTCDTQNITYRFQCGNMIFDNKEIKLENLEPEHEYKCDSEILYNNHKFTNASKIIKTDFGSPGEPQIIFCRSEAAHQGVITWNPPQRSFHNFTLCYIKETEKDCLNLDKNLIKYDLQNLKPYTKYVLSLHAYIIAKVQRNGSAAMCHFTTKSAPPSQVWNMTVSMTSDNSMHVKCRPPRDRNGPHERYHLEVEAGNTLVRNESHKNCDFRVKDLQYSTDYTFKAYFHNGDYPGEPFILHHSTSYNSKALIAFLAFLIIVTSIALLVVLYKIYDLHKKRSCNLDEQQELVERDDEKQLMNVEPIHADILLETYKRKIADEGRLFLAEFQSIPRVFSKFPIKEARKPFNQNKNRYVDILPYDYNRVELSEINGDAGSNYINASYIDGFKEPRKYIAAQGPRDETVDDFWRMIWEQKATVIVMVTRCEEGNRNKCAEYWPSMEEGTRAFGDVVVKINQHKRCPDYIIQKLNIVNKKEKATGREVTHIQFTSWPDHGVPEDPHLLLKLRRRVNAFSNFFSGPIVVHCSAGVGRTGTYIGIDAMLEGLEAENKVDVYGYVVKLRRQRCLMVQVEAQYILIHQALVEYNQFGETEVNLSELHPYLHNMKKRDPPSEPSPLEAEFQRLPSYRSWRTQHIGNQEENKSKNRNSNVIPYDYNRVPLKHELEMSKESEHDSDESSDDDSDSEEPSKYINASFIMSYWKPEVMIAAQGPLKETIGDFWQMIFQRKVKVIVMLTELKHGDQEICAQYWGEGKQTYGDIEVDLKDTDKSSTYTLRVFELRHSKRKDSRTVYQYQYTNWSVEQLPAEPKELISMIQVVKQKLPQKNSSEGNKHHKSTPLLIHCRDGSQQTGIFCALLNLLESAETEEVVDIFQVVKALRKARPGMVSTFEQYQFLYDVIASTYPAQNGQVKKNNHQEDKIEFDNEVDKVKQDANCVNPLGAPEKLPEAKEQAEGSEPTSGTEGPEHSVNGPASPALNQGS

Cytochrome P450 2E1 = Cytochrome P450 2E1 (Homo sapiens, UniProt P05181); conditions: bti-tn-5b1-4; note: in other assays of this panel Not Active means under 50% inhibition at 10 µM
[4] = DRUGMATRIX: GABAA, Muscimol, Central radioligand binding (ligand: [3H] Muscimol); assay type: cell membranes, Rattus norvegicus, Wistar, Brain, Membrane; conditions: Not Active = under 50% inhibition at 10 µM
Caspase-1 = target: T4, Caspase-1 (Homo sapiens, UniProt P29466); design: species or system Escherichia coli
T4 sequence (P29466 whole entry): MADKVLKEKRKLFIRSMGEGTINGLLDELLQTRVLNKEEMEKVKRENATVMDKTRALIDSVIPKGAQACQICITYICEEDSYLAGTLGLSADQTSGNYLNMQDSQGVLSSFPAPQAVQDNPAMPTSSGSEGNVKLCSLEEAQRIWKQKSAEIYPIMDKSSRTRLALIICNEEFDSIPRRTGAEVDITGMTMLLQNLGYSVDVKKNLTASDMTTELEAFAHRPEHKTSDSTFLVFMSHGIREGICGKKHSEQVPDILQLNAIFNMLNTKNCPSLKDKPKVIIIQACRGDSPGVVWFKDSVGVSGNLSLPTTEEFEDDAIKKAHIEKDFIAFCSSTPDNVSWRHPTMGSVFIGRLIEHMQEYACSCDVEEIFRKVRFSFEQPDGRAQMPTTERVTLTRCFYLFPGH

[5] = DRUGMATRIX: Tumor Necrosis Factor (TNF), Non-Selective radioligand binding (ligand: [125I] TNF-alpha); assay type: cell membranes, Membrane; conditions: u-937; Not Active = under 50% inhibition at 10 µM

Chain of Cytochrome P450 2E1 (P05181 whole entry): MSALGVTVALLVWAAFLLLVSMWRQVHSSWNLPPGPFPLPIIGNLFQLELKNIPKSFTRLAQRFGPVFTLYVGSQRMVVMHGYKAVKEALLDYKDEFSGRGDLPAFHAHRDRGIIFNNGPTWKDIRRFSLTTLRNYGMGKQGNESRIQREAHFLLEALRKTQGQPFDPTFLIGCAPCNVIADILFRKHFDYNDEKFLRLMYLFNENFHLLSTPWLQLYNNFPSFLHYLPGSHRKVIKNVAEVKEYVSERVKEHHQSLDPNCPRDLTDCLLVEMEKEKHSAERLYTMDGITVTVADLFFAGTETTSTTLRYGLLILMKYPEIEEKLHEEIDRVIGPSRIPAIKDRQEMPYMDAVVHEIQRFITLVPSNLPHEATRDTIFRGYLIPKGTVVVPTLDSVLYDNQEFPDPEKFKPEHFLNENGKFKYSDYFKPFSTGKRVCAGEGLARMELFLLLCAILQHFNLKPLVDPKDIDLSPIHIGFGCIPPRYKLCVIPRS

Clc1ccc(C(c2ccccc2Cl)C(Cl)Cl)cc1 (stereo unspecified) [MITOTANE]
Not Active: IC50 (Substance-K receptor) | IC50 [1] | IC50 [2] | IC50 [3] | IC50 (Cytochrome P450 2E1) | Ki (Cytochrome P450 2E1) | IC50 [4] | Ki [4] | IC50 (Caspase-1) | IC50 [5] | Ki [5]

COc1c(C)c2c(c(O)c1C/C=C(\C)CCC(=O)OCCN1CCOCC1)C(=O)OC2 [MYCOPHENOLATE MOFETIL]
Not Active: IC50 (Substance-K receptor) | IC50 [1] | IC50 [2] | IC50 [3] | IC50 (Cytochrome P450 2E1) | Ki (Cytochrome P450 2E1) | IC50 [4] | Ki [4] | IC50 (Caspase-1) | IC50 [5] | Ki [5]

NNc1ccccc1 [PHENYLHYDRAZINE]
Not Active: IC50 (Substance-K receptor) | IC50 [1] | IC50 [2] | IC50 [3] | IC50 (Cytochrome P450 2E1) | Ki (Cytochrome P450 2E1) | IC50 [4] | Ki [4] | IC50 (Caspase-1) | IC50 [5] | Ki [5]

CC(=O)[C@H]1CC[C@H]2[C@@H]3CCC4=CC(=O)CC[C@]4(C)[C@H]3CC[C@]12C [PROGESTERONE]
Not Active: IC50 (Substance-K receptor) | IC50 [1] | IC50 [2] | IC50 [3] | IC50 (Cytochrome P450 2E1) | Ki (Cytochrome P450 2E1) | IC50 [4] | Ki [4] | IC50 (Caspase-1) | IC50 [5] | Ki [5]

NC(=O)c1ncn([C@@H]2O[C@H](CO)[C@@H](O)[C@H]2O)n1 [RIBAVIRIN]
Not Active: IC50 (Substance-K receptor) | IC50 [1] | IC50 [2] | IC50 [3] | IC50 (Cytochrome P450 2E1) | Ki (Cytochrome P450 2E1) | IC50 [4] | Ki [4] | IC50 (Caspase-1) | IC50 [5] | Ki [5]

O=[N+]([O-])c1cc([As](=O)(O)O)ccc1O [ROXARSONE]
Not Active: IC50 (Substance-K receptor) | Ki (Substance-K receptor) | IC50 [1] | Ki [1] | IC50 [2] | Ki [2] | IC50 [3] | Ki [3] | IC50 (Cytochrome P450 2E1) | Ki (Cytochrome P450 2E1) | IC50 [4] | Ki [4] | IC50 (Caspase-1) | Ki (Caspase-1) | IC50 [5] | Ki [5]

CC[C@H]1OC(=O)[C@H](C)[C@@H](O[C@H]2C[C@@](C)(OC)[C@@H](O)[C@H](C)O2)[C@H](C)[C@@H](O[C@@H]2O[C@H](C)C[C@H](N(C)C)[C@H]2O)[C@](C)(O)C[C@@H](C)/C(=N\OCOCCOC)[C@H](C)[C@@H](O)[C@]1(C)O [ROXITHROMYCIN]
Not Active: IC50 (Substance-K receptor) | IC50 [1] | IC50 [2] | IC50 [3] | IC50 (Cytochrome P450 2E1) | Ki (Cytochrome P450 2E1) | IC50 [4] | Ki [4] | IC50 (Caspase-1) | IC50 [5] | Ki [5]

NC(=O)c1ccccc1O [SALICYLAMIDE]
Not Active: IC50 (Substance-K receptor) | IC50 [1] | IC50 [2] | IC50 [3] | IC50 (Cytochrome P450 2E1) | Ki (Cytochrome P450 2E1) | IC50 [4] | Ki [4] | IC50 (Caspase-1) | IC50 [5] | Ki [5]

Cc1ncc([N+](=O)[O-])n1CC(C)O (stereo unspecified) [SECNIDAZOLE]
Not Active: IC50 (Substance-K receptor) | IC50 [1] | IC50 [2] | IC50 [3] | IC50 (Cytochrome P450 2E1) | Ki (Cytochrome P450 2E1) | IC50 [4] | Ki [4] | IC50 (Caspase-1) | IC50 [5] | Ki [5]

CC(=O)S[C@@H]1CC2=CC(=O)CC[C@]2(C)[C@H]2CC[C@@]3(C)[C@@H](CC[C@@]34CCC(=O)O4)[C@H]12 [SPIRONOLACTONE]
Not Active: IC50 (Substance-K receptor) | IC50 [1] | IC50 [2] | IC50 [3] | IC50 (Cytochrome P450 2E1) | Ki (Cytochrome P450 2E1) | IC50 [4] | Ki [4] | IC50 (Caspase-1) | IC50 [5] | Ki [5]

C[C@]12Cc3c[nH]nc3C[C@@H]1CC[C@@H]1[C@@H]2CC[C@@]2(C)[C@H]1CC[C@]2(C)O [STANOZOLOL]
Not Active: IC50 (Substance-K receptor) | IC50 [1] | IC50 [2] | IC50 [3] | IC50 (Cytochrome P450 2E1) | Ki (Cytochrome P450 2E1) | IC50 [4] | Ki [4] | IC50 (Caspase-1) | IC50 [5] | Ki [5]
